This passage reports EC50 results from patent publication US20240018140A1, “MODIFIED IMIDAZOPYRIDINES AS GLUCOSYLCERAMIDE SYNTHASE INHIBITORS” (Merck Sharp & Dohme LLC, priority 2020, published 2024).

Structures are written as SMILES.

Sequence of glucosylceramide synthase (GCS) (Q16739 whole entry): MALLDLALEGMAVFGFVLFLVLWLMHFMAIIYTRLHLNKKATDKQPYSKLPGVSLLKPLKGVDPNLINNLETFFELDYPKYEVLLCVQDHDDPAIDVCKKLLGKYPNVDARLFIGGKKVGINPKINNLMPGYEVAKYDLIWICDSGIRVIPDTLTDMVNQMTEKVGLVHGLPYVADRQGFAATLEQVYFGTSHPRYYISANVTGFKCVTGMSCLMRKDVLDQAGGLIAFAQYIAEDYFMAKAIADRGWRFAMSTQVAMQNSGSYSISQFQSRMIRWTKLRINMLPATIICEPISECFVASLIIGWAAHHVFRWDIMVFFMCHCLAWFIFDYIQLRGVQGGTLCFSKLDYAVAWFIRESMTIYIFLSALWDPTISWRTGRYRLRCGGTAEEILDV

The target in this test is glucosylceramide synthase (GCS) (Homo sapiens (Human), UniProt Q16739). As to the kind of experiment: UDP-Glo glucosylceramide synthase biochemical assay. To be noted: endogenous GCS in Golgi preparations from human A375 malignant melanoma skin cells; C6 ceramide and UDP-glucose substrates; 20 h incubation; UDP detected by luminescence. A digest of the protocol:
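Endogenous GCS in Golgi preparations from A375 melanoma cells (1.5 μg total protein) preincubated 30 min at room temperature with compound. UDP-glucose and ceramide then added for 20 h at room temperature; UDP measured by luciferase luminescence. Normalized to DMSO (0%) and reference inhibitor (100%); EC50 and % Emax from 4PL fit.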
`CC(C)(O)C1(C)CN=C(c2cn3cc(Cl)cc(-c4ccccc4OCC(F)(F)F)c3n2)O1` (centres unmarked) [Compound 77, 2-[2-[6-chloro-8-[2-(2,2,2-trifluoroethoxy)phenyl]imidazo[1,2-a]pyridin-2-yl]-5-methyl-4H-oxazol-5-yl]propan-2-ol] showed an EC50 of 3.7 nM. With `CC(C)(O)C1(C)COC(c2cn3cc(Cl)cc(-c4ccccc4OCC(F)(F)F)c3n2)=N1` (centres unmarked) [Compound 78, 2-[2-[6-chloro-8-[2-(2,2,2-trifluoroethoxy)phenyl]imidazo[1,2-a]pyridin-2-yl]-4-methyl-5H-oxazol-4-yl]propan-2-ol] the figure was 32 nM; with `CC(C)(C)NCc1cn2cccc(-c3ccccc3OCC(F)(F)F)c2n1` [Compound 79, 2-methyl-N-((8-(2-(2,2,2-trifluoroethoxy)phenyl)imidazo[1,2-a]pyridin-2-yl)methyl)propan-2-amine], 140 nM.

In the case of `NCc1cn2cccc(-c3ccccc3OCC(F)(F)F)c2n1` [Compound 80, (8-(2-(2,2,2-trifluoroethoxy)phenyl)imidazo[1,2-a]pyridin-2-yl)methanamine], the EC50 was found to be 330 nM. Consider `O=C(Nc1ccc2cccc(-c3ccccc3OCC(F)(F)F)c2n1)[C@H]1C[C@@H](O)C1` [Compound 81, cis-3-hydroxy-N-(8-(2-(2,2,2-trifluoroethoxy)phenyl)quinolin-2-yl)cyclobutane-1-carboxamide], for which the response was half-maximal at 11 nM (EC50).

Consider `O=C(Nc1ccc2cccc(-c3ccccc3OCC(F)(F)F)c2n1)[C@H]1C[C@H](O)C1` [Compound 82, trans-3-hydroxy-N-(8-(2-(2,2,2-trifluoroethoxy)phenyl)quinolin-2-yl)cyclobutane-1-carboxamide], for which a half-maximal effect (EC50) was put at 3 nM. In turn, `O=C(Nc1ccc2c(F)ccc(-c3ccccc3OCC(F)(F)F)c2n1)[C@H]1C[C@H](O)C1` [Compound 83, trans-N-(5-fluoro-8-(2-(2,2,2-trifluoroethoxy)phenyl)quinolin-2-yl)-3-hydroxycyclobutane-1-carboxamide] had a concentration for a half-maximal effect (EC50) of 6.9 nM. Turning to `O=C(N[C@H]1C[C@@H](O)C1)c1cc2c(-c3ccccc3OCC(F)(F)F)cccc2cn1` [Compound 84], the EC50 came out at 16 nM.

Usually EC50 stands for the concentration giving half of the maximal effect. Lower therefore signals an effect from little substance.
